Molecules are shown by their SMILES.

Assay [1] relates to Mus musculus. As to the kind of experiment: In vivo inhibition of TPA-induced ornithine decarboxylase (ODC) activity in hairless mouse skin. Type of assay: functional.
In assay [2] the target is T1, Retinoic acid receptor RXR-alpha (Homo sapiens, UniProt P19793).
T1 sequence (P19793 whole entry): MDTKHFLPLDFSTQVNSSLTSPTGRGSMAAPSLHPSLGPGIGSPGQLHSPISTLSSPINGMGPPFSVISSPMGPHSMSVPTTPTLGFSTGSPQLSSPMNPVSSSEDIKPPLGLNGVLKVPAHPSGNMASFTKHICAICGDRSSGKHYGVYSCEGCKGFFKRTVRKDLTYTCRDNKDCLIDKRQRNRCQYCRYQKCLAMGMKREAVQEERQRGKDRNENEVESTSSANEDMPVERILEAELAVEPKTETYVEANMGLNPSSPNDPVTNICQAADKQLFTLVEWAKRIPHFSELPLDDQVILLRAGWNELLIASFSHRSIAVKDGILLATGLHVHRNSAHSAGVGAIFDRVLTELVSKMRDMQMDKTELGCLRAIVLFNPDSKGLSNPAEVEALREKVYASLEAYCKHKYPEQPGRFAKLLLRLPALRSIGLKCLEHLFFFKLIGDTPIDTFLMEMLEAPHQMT
Briefly: Transcriptional activation of retinoid X receptor RXR alpha; not active.

The target in assay [3] is T2, Retinoic acid receptor beta (Homo sapiens, UniProt P10826).
T2 sequence (P10826 whole entry): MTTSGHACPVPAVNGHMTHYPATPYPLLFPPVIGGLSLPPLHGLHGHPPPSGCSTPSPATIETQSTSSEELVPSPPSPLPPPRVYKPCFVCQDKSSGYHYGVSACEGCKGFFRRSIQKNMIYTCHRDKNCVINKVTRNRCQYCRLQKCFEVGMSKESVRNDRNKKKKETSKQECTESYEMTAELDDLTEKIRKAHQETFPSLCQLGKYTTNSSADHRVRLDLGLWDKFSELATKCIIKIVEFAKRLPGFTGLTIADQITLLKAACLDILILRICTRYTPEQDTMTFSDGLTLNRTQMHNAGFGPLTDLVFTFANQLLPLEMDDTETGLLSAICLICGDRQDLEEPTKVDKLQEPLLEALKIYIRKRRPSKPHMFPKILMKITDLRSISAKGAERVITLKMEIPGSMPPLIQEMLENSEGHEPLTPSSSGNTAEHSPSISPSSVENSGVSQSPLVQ
Briefly: Transcriptional activation of retinoic acid receptor RAR beta; not active.

Assay [4] deals with T3, Retinoic acid receptor gamma (Homo sapiens, UniProt P13631).
T3 sequence (P13631 whole entry): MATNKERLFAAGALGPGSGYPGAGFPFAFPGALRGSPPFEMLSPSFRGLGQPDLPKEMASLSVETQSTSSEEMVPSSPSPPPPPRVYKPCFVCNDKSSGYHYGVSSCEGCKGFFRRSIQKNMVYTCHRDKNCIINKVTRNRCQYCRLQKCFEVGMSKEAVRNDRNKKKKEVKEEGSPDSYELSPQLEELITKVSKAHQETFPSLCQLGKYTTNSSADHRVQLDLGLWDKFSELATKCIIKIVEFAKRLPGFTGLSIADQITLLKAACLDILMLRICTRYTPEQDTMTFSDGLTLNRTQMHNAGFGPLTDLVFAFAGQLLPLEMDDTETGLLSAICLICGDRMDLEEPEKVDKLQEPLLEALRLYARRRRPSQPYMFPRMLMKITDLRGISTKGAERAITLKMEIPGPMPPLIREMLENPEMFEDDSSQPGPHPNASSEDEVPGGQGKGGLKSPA
Briefly: Transcriptional activation of retinoic acid receptor RAR gamma; not active.

Assay [5] deals with T4, Retinoic acid receptor alpha (Homo sapiens, UniProt P10276).
T4 sequence (P10276 whole entry): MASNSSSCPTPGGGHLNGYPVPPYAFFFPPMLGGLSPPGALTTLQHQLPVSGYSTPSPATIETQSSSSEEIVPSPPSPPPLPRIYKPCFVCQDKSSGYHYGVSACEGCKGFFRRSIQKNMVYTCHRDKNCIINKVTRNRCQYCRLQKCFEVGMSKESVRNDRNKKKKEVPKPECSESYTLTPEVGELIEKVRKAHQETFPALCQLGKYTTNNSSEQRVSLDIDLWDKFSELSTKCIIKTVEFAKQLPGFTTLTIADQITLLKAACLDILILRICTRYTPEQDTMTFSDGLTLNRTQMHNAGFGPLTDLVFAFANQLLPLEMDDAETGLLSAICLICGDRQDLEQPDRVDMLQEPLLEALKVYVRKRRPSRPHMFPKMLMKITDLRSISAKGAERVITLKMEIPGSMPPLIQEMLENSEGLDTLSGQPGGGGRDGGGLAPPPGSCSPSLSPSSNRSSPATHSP
As to the kind of experiment: Transcriptional activation of retinoic acid receptor RAR alpha; not active.

The target in assay [6] is T2, Retinoic acid receptor beta. As to the kind of experiment: (§1) Transcriptional activation of retinoic acid receptor RAR beta.
For assay [7] the target is unchanged. The assay is described as §1. This is another data set of the same source.
For assay [8], the target named is T3, Retinoic acid receptor gamma. As to the kind of experiment: Transcriptional activation of retinoic acid receptor RAR gamma.
Assay [9] addresses T4, Retinoic acid receptor alpha. Briefly: Transcriptional activation of retinoic acid receptor RAR alpha.

For the compound `CCOC(=O)c1ccc(C#C/C=C/C2=C(C)CCCC2(C)C)nc1`, the IC80 in assay [1] was 5.3 nmol.
In assay [1], `CCOC(=O)c1ccccc1C#C/C=C/C1=C(C)CCCC1(C)C` yielded an IC80 of more than 1000 nmol.
As a reminder, the EC50 is the concentration needed to bring the measured effect to its halfway point. For the compound `CC1=C(/C=C/C#Cc2cccc(C(=O)O)c2)C(C)(C)CCC1`, the EC50 in assay [2], in assay [3], in assay [4] and in assay [5] was more than 10 µM in each case. This compound also had an IC80 in [1] of 890 nmol.
As for `CC1=C(/C=C/C#Cc2ccccc2C(=O)O)C(C)(C)CCC1`, the EC50 in assay [2], in assay [3], in [4] and in [5] was more than 10 µM each time. In [1], this compound had an IC80 of more than 1000 nmol.
On to `CCOC(=O)c1ccc(C#C/C=C/C2=C(C)CCCC2(C)C)o1`, for which, in assay [1], the IC80 is more than 300 nmol.
As for `CCOC(=O)c1ccc(C#C/C=C/C2=C(C)CCCC2(C)C)cc1`, in assay [1], the IC80 came out at 1.3 nmol.
In turn, `CCOC(=O)c1ccc(C#C/C=C/C2=C(C)CCCC2(C)C)s1` came in with an IC80 in assay [1] of 30 nmol.
`C/C(=C\c1ccc(C(=O)O)cc1)c1ccc2c(c1)C(C)(C)CCC2(C)C` gave an EC50 in assay [2] of 10 µM.
Take `CC1=C(C#Cc2ccc3cc(C(=O)O)ccc3c2)C(C)(C)CCC1`: the EC50 in assay [6] was 0.93 µM; in assay [2] it was more than 10 µM; in [7] it was 0.355 µM; in [5], more than 10 µM. The compound further came in with an IC80 in assay [1] of 215 nmol.
In assay [1], `CCOC(=O)c1ccc2cc(C#CC3=C(C)CCCC3(C)C)ccc2c1` returned an IC80 of 131 nmol.
For the compound `CC1=C(/C=C/C#Cc2ccc(C(=O)O)cn2)C(C)(C)CCC1`, the IC80 in assay [1] was found to be 14.8 nmol. Moreover, the EC50 in assay [8] was more than 0.015 µM; in [7] it was more than 0.005 µM; in [5] it was more than 10 µM.
In turn, `CCOC(=O)c1cccc(C#C/C=C/C2=C(C)CCCC2(C)C)c1` showed an IC80 in assay [1] of more than 1000 nmol.
On to `CC1=C(/C=C/C#Cc2ccc(C(=O)O)cc2)C(C)(C)CCC1`, for which the EC50 in assay [2] amounted to 10 µM; in [8], 0.01 µM; in [9], 0.598 µM; in assay [7] it was 0.002 µM. Further, the IC80 in [1] stood at 0.46 nmol.

The values above are taken from ChEMBL document CHEMBL1128846, “Synthesis and pharmacological activity of conformationally restricted, acetylenic retinoid analogs” (Bioorg Med Chem Lett, 1995).
